Source: patent US20060264367A1, “Prevention of fibrosis following cardiac injury” (Howard Florey Institute, priority 2005, published 2006)

Key:
Type in all cases: cell-based, rat
[1] = test system: atrial and ventricular fibroblasts; assay: Cardiac fibroblast proliferation (cell counts and [3H]-thymidine incorporation); conditions: for increase in fibroblast proliferation: 3 days; for increase in atrial and ventricular fibroblast proliferation: 72 h
Description: The ability of rhRLX to modulate cardiac fibroblast proliferation was investigated in the absence or presence of Ang II and IGF-I, which both potently stimulate fibroblast proliferation. Cardiac fibroblasts were plated at an equal density of 10^4 cells/96-well plate in DMEM-FBS. Twenty-four hours later, media were changed to DMEM supplemented with lactalbumin hydrolysate, and cells were labelled with [^3H]-thymidine (3 μCi/ml) in the presence of rhRLX (100 ng/ml) alone or in combination with IGF-I (0.1 μg/ml, 0.5 μg/ml, and 1 μg/ml) or Ang II (10^−8 M and 10^−7 M) for 72 hours. [^3H]-thymidine incorporation and cell counts, using a hemocytometer, were evaluated.

[2] = test system: atrial and ventricular fibroblasts; assay: Collagen secretion into media by cardiac fibroblasts ([3H]-proline labelling); conditions: 72 h
Description: (§1) Distribution of relaxin and LGR7 expression was determined in atrial myocytes and fibroblasts, ventricular myocytes and fibroblasts, and vascular smooth muscle cells (VSMC). These cells were obtained from neonate rats using standard collagenase digestion methods. Neonate (1 day old) Sprague Dawley rats were used for tissue collection and subsequent cardiac cell isolation and preparation. The cells were maintained in DMEM supplemented with 10% fetal calf serum, penicillin (50 U/ml), and streptomycin (50 μg/ml) (DMEM-FBS). Cardiac fibroblast isolation from myocytes and subsequent preparation were performed as described previously (Gray M O et al. (1998) Cardiovasc Res 40:352-363). These preparations contained more than 95% cardiac fibroblasts as determined by morphological appearance and immunocytochemical staining. Fibroblasts were used between passages 2 and 4 for all studies.
Atrial and ventricular fibroblasts were subjected to TGF-β or Ang II in the absence or presence of rhRLX over 3 days. For the TGF-β studies, cells were treated for 72 hours with rhRLX (100 ng/ml), TGF-β (1 or 2 ng/ml), or a combination of rhRLX (100 ng/ml) and TGF-β (2 ng/ml) in serum-free DMEM supplemented with lactalbumin hydrolysate. For the Ang II studies, fibroblasts were treated with Ang II (1×10^−7 M and 5×10^−7 M) or a combination of rhRLX (100 ng/ml) and Ang II (1 or 5×10^−7 M). TGF-B3 (1 ng/ml) alone induced an 85-95% increase in secretion of interstitial (types I and III) collagen into the cultured media.
For measurement of collagen synthesis, collagen was biosynthetically labelled with [^3H]-proline in the presence of ascorbate and β-aminopropionitrile, as previously described (Unemori et al, supra). For measurement of collagen deposition into the cell matrix, cell layers (per well) were isolated and hydrolyzed with 6 M hydrochloric acid for measurement of hydroxyproline content, as described previously (Samuel C S et al. (1996) Endocrinology 137:3884-3890; Gallop P M, Paz M A (1975) Physiol Rev 55:418487). […]

MMP-2 = assay: Gelatin zymography of conditioned media, MMP-2 expression; conditions: TGF-β 2 ng/ml alone, 72 h
Description: The effects of rhRLX on MMP expression, were determined using gelatin zymography of conditioned media, performed as previously described (Talhouk R S et al. (1991) 112:439-449). Briefly, the neonatal cardiac cells (1×10^5/cm^2) were treated with either TGF-β (2 ng/ml) or Ang II (10^−7 M) in the absence or presence of rhRLX (100 ng/ml) for 72 h; the final 24 hours of treatment were under serum-free conditions. Equal aliquots of the collected media were then analyzed on zymogram gels consisting of 7.5% acrylamide and 1 mg/ml gelatin, and the gels were subsequently treated as previously detailed (Talhouk R S, supra).

[3] = test system: atrial and ventricular fibroblasts; assay: Collagen deposition into the cell matrix (hydroxyproline content of cell layers); conditions: stimulus alone, 72 h
Description: as §1
Fibroblasts were also plated at 5/mm^2 and grown for 7 days in the absence or presence of rhRLX (100 ng/ml). […]
Collagen content of cell layers from untreated fibroblasts and cells treated with rhRLX (100 ng/ml) alone, TGF-β (2 ng/ml) alone, or TGF-β (2 ng/ml) and rhRLX (100 ng/ml) was measured after 72 hours of culture. The collagen content of cell layers from untreated atrial fibroblasts and cells treated with Ang II (10^−7 M) alone or Ang II (10^−7 M) and rhRLX (100 ng/ml) was measured after 72 hours of culture. […]

α-SMA = assay: Fibroblast differentiation to myofibroblasts, Western blot of α-SMA; conditions: TGF-β 2 ng/ml or Ang II 10^−7 M alone, 72 h, ventricular fibroblasts
Text: In the normal heart, cardiac fibroblasts are relatively quiescent, but upon pathological stimuli to the heart they proliferate and differentiate into activated myofibroblasts. These myofibroblasts, the hallmarks of which are α-SMA expression and production of prodigious amounts of collagen, are important contributors to fibrosis and the pathology of the heart (Eghbali M (1998) Basic Res Cardiol 87(Suppl 2):183-189; Bouzegrhane F, Thibault G (2002) Cardiovasc Res 53:304-312). Ventricular fibroblast differentiation to myofibroblasts was analyzed by measuring α-SMA expression by ventricular fibroblasts. In all experiments, an equal amount of total protein (10 μg/sample) was analyzed. α-SMA was sized at 43 kDa under nonreducing conditions when detected with a monoclonal antibody. In some experiments, cells were either untreated or treated with TGF-β (2 ng/ml) alone or TGF-β (2 ng/ml) and rhRLX (100 ng/ml) for 72 hours. In other experiments, cells were either untreated or treated with Ang II (10^−7 M) alone or Ang II (10^−7 M) and rhRLX (100 ng/ml) for 72 hours.
Fibroblast differentiation into myofibroblasts was determined by α-SMA expression. […] Cell layers were trypsinized, and the protein was extracted using Trizol reagent (according to the manufacturer's instructions; Life Technologies, Gaithersburg, Md.) and analyzed by the Bio-Rad dye-binding protein assay (Bio-Rad, Richmond, Calif.). […]

Row | Substance | increase in fibroblast proliferation ([1]; IGF-I 0.1 μg/ml) | increase in fibroblast proliferation ([1]; IGF-I 0.5 μg/ml) | increase in fibroblast proliferation ([1]; IGF-I 1.0 μg/ml) | increase in secretion of interstitial (types I and III) collagen into the cultured media ([2]; 1 ng/ml alone) | MMP-2 expression (MMP-2) | up-regulation of collagen deposition into the matrix of fibroblasts [3] | increase in α-SMA expression (α-SMA) | increase in collagen secretion ([2]; Ang II 1×10^−7 M alone) | increase in collagen secretion ([2]; Ang II 5×10^−7 M alone) | increase in atrial and ventricular fibroblast proliferation ([1]; Ang II 10^−7 M) | increase in atrial and ventricular fibroblast proliferation ([1]; Ang II 10^−8 M)
1 | IGF-I: growth factor that potently stimulates fibroblast proliferation | 27-30% | 36-40% | 34-40% | – | – | – | – | – | – | – | –
2 | TGF-β | – | – | – | 85-95% | modest increase | 65-85% | 85-95% | – | – | – | –
3 | angiotensin II (DRVYIHPF; Angiotensin-2; UniProt P01019 25-32, looked up) [Ang II, angiotensin II, profibrotic stimulus obtained from Sigma-Aldrich] | – | – | – | – | – | 20-50% | 25-35% | 50-60% | 15-20% | 6473% | 63-75%
